melting point: 98 to 99 °C
SMILES: COc1ccc(C2=CCN(c3ccc(Cl)c(Cl)c3)C2=O)cc1OCCN1CCCCC1

— patent publication US20060205788A1, “Compounds having activity at 5ht2c receptor and uses thereof” (priority 2003, published 2006)
